Among the data in DBAASP are MIC values, retold here.

Converted amounts (≈) assume the structure as drawn.

Holding throughout (assay): ≥ marks a high value that may be exact or a test limit, other limits are often not marked, values filed in µg/mL are converted to µM
The subject of one test is Streptococcus mutans.
Test [1] concerns Candida albicans ATCC 90028.
Test [2] has as its system Staphylococcus aureus NCTC 8325.
For test [3], the system named is Escherichia coli ATCC 25922.

In general, MIC refers to the lowest concentration that inhibits growth of the organism. Read a low MIC as inhibition by little substance.

`CC[C@H](C)[C@H](NC(=O)[C@H](CCC(N)=O)NC(=O)[C@H](CCCCN)NC(=O)[C@@H](NC(=O)[C@H](CCC(N)=O)NC(=O)[C@H](CC(N)=O)NC(=O)[C@H](CC(C)C)NC(=O)[C@@H](NC(=O)[C@@H](N)CCCN=C(N)N)C(C)C)C(C)C)C(=O)N[C@@H](CC(C)C)C(=O)N[C@@H](CCCCN)C(=O)O` [RVLNQVKQILK] yielded an MIC in the test on Streptococcus mutans of at least 93.4 µM.
Same read-out and setting: in the case of `NC(=O)[C@H](Cc1ccccc1)NC(=O)[C@H](Cc1c[nH]c2ccccc12)NC(=O)[C@H](CCCN=C(N)N)NC(=O)[C@H](Cc1c[nH]c2ccccc12)NC(=O)[C@H](CCCN=C(N)N)NC(=O)[C@H](Cc1c[nH]c2ccccc12)NC(=O)[C@H](CCCN=C(N)N)NC(=O)[C@H](Cc1ccccc1)NC(=O)[C@H](Cc1c[nH]c2ccccc12)NC(=O)[C@H](CCCN=C(N)N)NC(=O)[C@H](Cc1c[nH]c2ccccc12)NC(=O)[C@H](CCCN=C(N)N)NC(=O)[C@H](Cc1c[nH]c2ccccc12)NC(=O)[C@@H](N)CCCN=C(N)N` [RWRWRWFRWRWRWF] it was 6.76 µM (≈ 16 µg/mL).
Turning to `CC[C@H](C)[C@H](NC(=O)[C@H](CC(C)C)NC(=O)[C@H](CCCCN)NC(=O)[C@H](CCCCN)NC(=O)[C@@H](NC(=O)[C@H](C)NC(=O)[C@H](CCCCN)NC(=O)[C@@H](NC(=O)[C@H](C)NC(=O)[C@H](Cc1cnc[nH]1)NC(=O)[C@@H]1CCCN1C(=O)[C@@H](NC(=O)[C@H](CC(C)C)NC(=O)[C@@H]1CCCN1C(=O)CNC(=O)[C@@H](NC(=O)[C@H](Cc1ccc(O)cc1)NC(=O)[C@H](CCCCN)NC(=O)[C@H](CCSC)NC(=O)[C@H](Cc1ccccc1)NC(=O)CN)[C@@H](C)CC)[C@@H](C)CC)C(C)C)[C@@H](C)CC)C(N)=O` [GFMKYIGPLIPHAVKAIKKLI], the results for the MIC in test [1], in test [2] and in test [3] were 25 µM (≈ 58.4 µg/mL), 3.13 µM (≈ 7.31 µg/mL) and 6.25 µM (≈ 14.6 µg/mL), respectively.
Consider `CC[C@H](C)[C@H](NC(=O)[C@H](CC(C)C)NC(=O)CNC(=O)[C@H](CO)NC(=O)[C@H](CC(C)C)NC(=O)[C@@H](NC(=O)[C@H](CCCCN)NC(=O)CNC(=O)[C@@H](NC(=O)[C@H](CC(C)C)NC(=O)[C@@H]1CCCN1C(=O)[C@H](CC(C)C)NC(=O)[C@@H](N)Cc1ccccc1)C(C)C)[C@@H](C)CC)C(N)=O` [FLPLVGKILSGLI], for which the MIC in test [2] is at least 70 µM.
Regarding `CC[C@H](C)[C@H](NC(=O)CNC(=O)[C@H](CCCCN)NC(=O)CNC(=O)[C@H](C)NC(=O)[C@H](Cc1ccccc1)NC(=O)[C@H](CCCCN)NC(=O)[C@H](CO)NC(=O)[C@H](Cc1ccccc1)NC(=O)[C@H](CC(C)C)NC(=O)CN)C(=O)N[C@@H](CCCCN)C(=O)N[C@@H](CC(N)=O)C(=O)N[C@@H](CC(C)C)C(=O)N[C@H](C(=O)N[C@@H](Cc1ccccc1)C(=O)N[C@@H](CCCCN)C(=O)NCC(=O)N[C@H](C(=O)N[C@@H](CCCCN)C(=O)N[C@@H](Cc1cnc[nH]1)C(=O)N[C@H](C(=O)NCC(=O)N[C@@H](CCCCN)C(=O)N[C@@H](CCC(=O)O)C(=O)N[C@H](C(=O)NCC(=O)N[C@@H](CCSC)C(=O)N[C@@H](CC(=O)O)C(=O)N[C@H](C(=O)N[C@H](C(=O)N[C@@H](CCCN=C(N)N)C(=O)N[C@H](C(=O)NCC(=O)N[C@H](C(=O)N[C@@H](CC(=O)O)C(=O)N[C@H](C(=O)N[C@@H](C)C(=O)NCC(=O)N[C@H]1CSSC[C@@H](C(=O)O)NC(=O)[C@H](CCC(=O)O)NC(=O)CNC(=O)[C@H](CCCCN)NC(=O)[C@H]([C@@H](C)CC)NC(=O)[C@H](CCCCN)NC1=O)C(C)C)[C@@H](C)CC)[C@@H](C)O)[C@@H](C)CC)C(C)C)C(C)C)[C@@H](C)CC)C(C)C)[C@@H](C)CC` [GLFSKFAGKGIKNLIFKGVKHIGKEVGMDVIRTGIDVAGCKIKGEC], the values for the MIC in test [1], in test [2] and in test [3] were at least 50 µM, 12.5 µM (≈ 60.8 µg/mL) and 6 µM (≈ 29.2 µg/mL), respectively.
